The values below come from patent publication US9040713B2, “Methods of managing blood sugar levels and compositions related thereto” (EMORY UNIVERSITY, priority 2010, dated 2015).

In data set [1] the target is IR (Mus musculus, UniProt P15208). The data set can be described thus: IR phosphorylation and downstream signaling in mouse tissues. In kind it is in vivo. The note with it: C57BL/6J mice, 20 mg/kg oral. Here is the method: (§1) (A) DDN reduces blood glucose in C57BL/6J mice. […] Blood glucose was monitored before and after dosing at various time points as indicated (*: P<0.05, **: P<0.01; ***: P<0.001, n=10-13, Two-way ANOVA vs vehicle). (B) DDN provokes IR phosphorylation and its downstream signaling in C57BL/6J mice. Three month-old C57BL/6J mice were starved for 12 h and then orally administrated with vehicle (0.5% methylcellulose), DDN (20 mg/kg) or 2NH2-NQ (20 mg/kg). Cell lysates were prepared from liver and muscle tissues collected at 3, 4, and 5 h after drug administration and analyzed by immunoprecipitation and immunoblotting. (C) DDN quickly activates IR phosphorylation and its downstream signaling. Three-month-old C57BL/6J mice were starved for 12 h and then injected with vehicle, 5 mg/kg DDN or 5 mg/kg 2NH2-NQ through vena cava. After 5 min, the liver was collected and analyzed by immunobloting using specific antibodies.
Sequence of IR (Mus musculus, UniProt P15208) (P15208 28-1372): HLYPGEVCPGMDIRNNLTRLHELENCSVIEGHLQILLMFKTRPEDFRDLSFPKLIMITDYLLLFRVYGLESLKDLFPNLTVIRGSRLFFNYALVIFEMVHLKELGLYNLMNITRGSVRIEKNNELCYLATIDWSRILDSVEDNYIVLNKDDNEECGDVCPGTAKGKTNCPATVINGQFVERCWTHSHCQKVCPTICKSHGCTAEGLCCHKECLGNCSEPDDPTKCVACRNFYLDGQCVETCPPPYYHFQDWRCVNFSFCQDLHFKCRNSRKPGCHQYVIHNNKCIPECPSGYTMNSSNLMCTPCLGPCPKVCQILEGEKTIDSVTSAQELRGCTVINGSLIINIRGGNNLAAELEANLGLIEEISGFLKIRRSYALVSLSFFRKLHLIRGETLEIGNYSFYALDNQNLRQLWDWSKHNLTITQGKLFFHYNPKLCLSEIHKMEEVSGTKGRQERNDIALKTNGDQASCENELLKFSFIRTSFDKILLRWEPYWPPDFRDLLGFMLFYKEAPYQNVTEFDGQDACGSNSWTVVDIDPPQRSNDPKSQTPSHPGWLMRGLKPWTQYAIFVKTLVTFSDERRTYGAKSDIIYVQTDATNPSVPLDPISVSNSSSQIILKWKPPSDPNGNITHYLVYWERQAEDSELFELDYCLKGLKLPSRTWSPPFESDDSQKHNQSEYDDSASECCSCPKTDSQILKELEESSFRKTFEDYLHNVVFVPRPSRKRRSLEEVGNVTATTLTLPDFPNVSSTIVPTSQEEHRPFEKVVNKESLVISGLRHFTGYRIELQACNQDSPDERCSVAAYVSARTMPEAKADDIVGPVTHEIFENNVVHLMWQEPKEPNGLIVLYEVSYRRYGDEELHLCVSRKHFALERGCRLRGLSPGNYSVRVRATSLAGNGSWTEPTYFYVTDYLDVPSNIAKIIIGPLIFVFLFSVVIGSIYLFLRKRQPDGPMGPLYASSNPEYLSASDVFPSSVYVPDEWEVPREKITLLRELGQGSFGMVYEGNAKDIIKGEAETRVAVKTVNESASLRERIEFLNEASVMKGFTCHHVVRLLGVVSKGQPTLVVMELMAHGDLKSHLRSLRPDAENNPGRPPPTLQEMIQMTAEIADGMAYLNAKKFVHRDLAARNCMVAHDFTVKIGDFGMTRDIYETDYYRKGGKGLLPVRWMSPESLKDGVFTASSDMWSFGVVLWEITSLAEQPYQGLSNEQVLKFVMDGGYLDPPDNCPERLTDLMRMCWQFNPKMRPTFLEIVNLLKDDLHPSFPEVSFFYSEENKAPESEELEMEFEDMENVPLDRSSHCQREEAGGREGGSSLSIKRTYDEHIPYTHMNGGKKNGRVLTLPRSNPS
Three-month-old mice were starved for 12 h and then orally administrated with vehicle (0.5% methylcellulose) or DDN (5 mg/kg). Cell lysates were prepared from liver and muscle tissues collected at 1 and 2 h after drug administration and analyzed by immunoprecipitation and immunoblotting. […] Three-month-old mice were starved for 12 h and then orally administrated with vehicle (0.5% methylcellulose) or DDN (5 mg/kg). Cell lysates were prepared from liver and muscle tissues collected at 1 and 2 h after drug administration and analyzed by immunoprecipitation and immunoblotting. (C) Hypoglycemic function of DDN in db/db mice. The animals were starved for 12 h and then orally injected with vehicle (0.5% methylcellulose) or DDN (5 mg/kg). […] Blood glucose was monitored before and after drug administration at 1-hour intervals (*: P<0.05, **: P<0.01, n=5, Two-way ANOVA vs vehicle). (D) DDN improves the glucose tolerance in ob/ob mice. The animals were starved for 12 h and then orally dosed with vehicle (0.5% methylcellulose) or DDN (5 mg/kg). […] A bonus of glucose (2 gm/kg) was injected intraperitoneally 1 hour later. Blood glucose was measured at 30-min intervals (*: P<0.05, **:P<0.01, n=5, Two-way ANOVA vs vehicle control).
(§2) (A) 4524-E7 provokes IR phosphorylation in various tissues of mice. Three-month-old C57BL/6J mice were starved for 12 h and then dosed with vehicle (0.5% methylcellulose) or 4524-E7 (20 mg/kg). Cell lysates from liver, muscle, and WAT were prepared at 3, 4, and 5 h after drug administration and analyzed by immunoblotting. (B) Basal and insulin-stimulated hepatic glucose production rates were measured by hyperinsulinemic-euglycemic clamp. […] (C) Hypoglycemic effect of 4524-E7 in C57BL/6J mice. C57BL/6J mice were starved for 12 h and then orally administrated with vehicle (0.5% methylcellulose) or 4524-E7 (5 mg/kg). Blood glucose was monitored at different time points as indicated (n=8, *: P<0.05, two-way ANOVA). (D) Hypoglycemic effect in db/db mice. db/db mice were starved for 12 h and then orally injected with vehicle (0.5% methylcellulose) or 4524-E7 (5 mg/kg). Blood glucose was monitored at different time points as indicated (n=5, *: P<0.05, two-way ANOVA). (E) Glucose tolerance test in ob/ob mice. The mice were starved for 12 hours and then orally administrated with vehicle or 4524-E7 (5 mg/kg). A bonus of glucose (2 gm/kg) was injected intraperitoneally 1 hour later. Blood glucose was then measured at 30 min intervals (n=13, *: P<0.05; **: P<0.01, two-way ANOVA).
After a 12 h fasting, C57BL/6J mice were orally administrated with 20 mg/kg of compound in 0.5% methylcellulose, and sacrificed at 3 h, 4 h and 5 h following compound administration. Fat tissues were dissected quickly and frozen on dry ice. Fat lysates were prepared and analyzed by Western blotting.

The target of data set [2] is T1, GST-IRTK (Homo sapiens, UniProt P06213).
T1 construct: GST-tagged IRTK (GST-IRTK, a.a. 1011-1382); purchased Invitrogen
T1 sequence (P06213 1011-1382): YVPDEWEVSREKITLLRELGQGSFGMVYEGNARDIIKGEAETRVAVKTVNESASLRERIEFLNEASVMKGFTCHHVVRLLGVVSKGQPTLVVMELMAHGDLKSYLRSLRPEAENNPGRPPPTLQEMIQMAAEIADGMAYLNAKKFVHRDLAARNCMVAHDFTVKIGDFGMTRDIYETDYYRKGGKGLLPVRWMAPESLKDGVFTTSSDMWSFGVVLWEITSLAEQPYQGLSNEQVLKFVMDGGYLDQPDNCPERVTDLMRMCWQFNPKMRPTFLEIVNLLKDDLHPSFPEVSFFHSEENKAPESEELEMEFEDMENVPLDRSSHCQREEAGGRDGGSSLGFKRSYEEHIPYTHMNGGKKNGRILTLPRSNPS
The data set can be described thus: IR in vitro kinase assay (histone H2B phosphorylation). In kind it is biochemical. The note with it: different concentrations of compound. The method, then:
Parental CHO cells were used as a negative control (bottom panel). The fluorescence-labeled cells were analyzed on flow cytometry. (B) DDN binds to IRTK. UV-visible spectra were scanned from 200 to 800 nm for IRTK fragment in the presence of DDN or its analogue. When DDN binds to IRTK, it elicits the absorption alteration at 560 and 602 nm. (C) DDN protects IRTK from proteolysis. GST-IRTK was subjected to limited trypsin digestion in the presence of DDN (50 μM), ATP-γ-S (5 μM) or both. The reaction mixture was resolved by SDS-PAGE, followed by silver staining (D) DDN increases IRTK activity in vitro.
Parental CHO cells were used as a negative control (Bottom panel). The fluorescence-labeled cells were analyzed on flow cytometry. (B) 4524-E7 protects IRTK from proteolysis. GST-IRTK was subjected to limited trypsin or chymotrypsin digestion in the presence of 4524-E7 (50 μM), ATPyS (5 μM) or both at 37° C. for 5 min. The reaction mixture was resolved by SDS-PAGE, followed by silver staining Cleaved fragments were asterisked. (C) 4524-E7 increases IRTK activity in vitro. Recombinant GST-IRTK, GST-IGFRTK, and GST-EGFRTK were incubated with different concentrations of 4524-E7 or 10 μM 2—NH2-NQ and the kinase activity was examined by monitoring the phosphorylation of histone H2B. (E) In vitro kinase activity of various IRTK/IGF-1R kinase hybrids. The GFP-tagged kinases were expressed in HEK293, immunoprecipitated and incubated with different concentrations of 4524-E7 as indicated. […] Expressions of the kinases were also verified (lower panel).
Recombinant GST-IRTK was incubate with 50 mM tris-HCl (pH7.4), 10 mM MgCl2, and 50 μM ATP with different concentration of compound for 15 min at 25° C. Histone H2B (0.35 μg/ml) and [γ32P]ATP (0.25 μCi/ul) were added and the samples were further incubated for 10 min. The sample was separated on a SDS-polyacrylamide gel and autoradiographed.

In data set [3] the test system is C57BL/6J mice. The experiment in a line: Blood glucose level test in C57BL/6J mice. In kind it is in vivo, mouse. To be noted: 20 mg/kg oral, 12 h starved. The method, then: as §1, §2
After a 12 h fasting, C57B5L/6J and db/db mice were bled from the tail vein for a baseline measurement with a glucometer (Accu-Chek; Roche Diagnostics, Indianapolis, Ind.). Afterward, animals were orally administered 5 mg/kg compound in 0.5% methylcellulose through a feeding needle. Blood glucose levels were measured at hourly intervals over 5 h.

Data set [4] has as its target T2, IR (Homo sapiens, UniProt P06213). The data set can be described thus: Cell-based ELISA of IR tyrosine phosphorylation in CHO-IR cells. To be noted: 5 μM, 15 min, CHO-IR cells, ELISA. More on the design: expressed in transfected cells; host or cells: CHO (CHO-IR, gift from Dr. Nicholas Webster, UCSD). The method, then:
A cell-based screening assay was developed with Chinese hamster ovary cells stably transfected with IR (CHO-IR) by using an ELISA to determine the IR tyrosine phosphorylation. […] Other 1,4-Napthoquinones that are structurally related to 4524-E7 were evaluated.
CHO-IR cells were seeded in a 96-well plate at 15,000 cells per well in […] of 0.1% FBS medium with 0.1% FBS. […] Cells were lysed, and phosphorylated receptors were captured with pY20 immobilized on ELISA plates. Bound receptors were washed, then detected using an anti-IR beta antibody, followed by an horseradish peroxidase-conjugated secondary antibody and colorimetric detection with 3,3′,5,5′-tetramethylbenzidine.
(§3) A cell-based ELISA assay was developed with an IR stably transfected Chinese Hamster Ovary (CHO-IR) cell line. […] The cell lysates were subjected to the sandwich ELISA using immobilized anti-phosphotyrosine antibody and anti-IR antibody.

In data set [5] the test system is EGFR. The experiment in a line: EGFR phosphorylation in cells (immunoblotting). To be noted: HEK293 cells, 10 μM, 15 min. In kind it is cell-based. Here is the method: (§4) (A) DDN and CSN activate IR and its downstream signaling in CHO-IR cells. […] The cell lysates were analyzed by immunoblotting with anti-phospho-IR antibodies, or immunoprecipitated by PY20 and analyzed using anti-IR and anti-IRS-1, respectively. (B) DDN and CSN induce IR phosphorylation in a dose-dependent manner. CHO-IR cells were treated with the small compounds at different concentrations for 15 min, and the IR phosphorylation was monitored by immunoprecipitation and immunoblotting. (C) DDN, CSN induce IR phosphorylation in a time-dependent manner. […] (D) DDN and CSN induce IR phosphorylation and its downstream signaling in a dose-dependent manner. […] (E) DDN and CSN cannot induce IGF-1R or EGFR phosphorylation. CHO-IGF-1R or HEK293 cells were treated with EGF (100 nM), IGF-1 (100 nM), DDN (10 μM) or CSN (10 μM) for 15 min. The cell lysates were analyzed by immunoblotting with anti-pIGF-1R and anti-pEGFR.
(§5) (A) Chemical structure of 4524-E7. (B) Effect of 4524-E7 and other 1,4-naphthoquinone derivatives on IR phosphorylation in CHO-IR cells. CHO-IR cells were cultured in 96-well plates and treated with 5 μM compounds for 15 min at 37 C. Cells were lysed, and IR phosphorylations were tested by ELISA. The IR phosphorylation activities of the tested compounds were expressed as a percentage of the vehicle. (C) 4524-E7 and 1,4-naphthoquinone derivates activate IR and its downstream signaling in CHO-IR cells. […] The cell lysates were analyzed by immunoblotting with various indicated antibodies. The phosphorylated IR was immunoprecipitated using PY20 and analyzed by immunoblotting with anti-IR13 antibody. […] The phosphorylation of each receptor was determined by Western blot using specific antibodies as indicated. (E) 4524-E7 activates IR through its ICD. Upper panel: Diagram of chimaeric receptors. Lower panel: His-tagged wild-type IR, IGFR-IR, IR-IGFR, and IR-EGFR constructs were transfected into CHO cells followed vehicle or 5 μM 4524-E7 treatment for 30 min. Then the cells were lysated and the transfected receptor fused to His tag were pulled down with Ni+ beads, followed by western blot against anti-p-Tyr and anti-His. The cell lysates were tested with anti-p-Akt and anti-Akt.
(§6) A cell-based ELISA assay was developed with an IR stably transfected Chinese Hamster Ovary (CHO-IR) cell line. The cells were seeded in a 96-well plate and treated with 10 μM (15 min) compounds. The cell lysates were subjected to the sandwich ELISA using immobilized anti-phosphotyrosine antibody and anti-IR antibody. […] Among the positive hits, 1,4-naphthoquinone compounds were identified that can selectively activate IR but not IGF-1R (FIG. 1A). […] Total IR tyrosine phosphorylation was further confirmed by immunoprecipitation using anti-phosphotyrosine (PY20) antibody (FIG. 2A, 3rd panel). […]
In general terms: In western blotting, separated proteins are transferred to a membrane and probed.

The test system of data set [6] is C57BL/6J mice. The experiment in a line: Lethality after administration to C57BL/6J mice. In kind it is in vivo, mouse. To be noted: intraperitoneal, even at low doses (1 mg/kg). The method, then: However, CSN was lethal to the mice even at low doses (1 mg/kg) (data not shown). […] The kinetics of DDN in lowering blood glucose is different from that of insulin.

Data set [7] concerns IGF-1R. The experiment in a line: IGF-1R phosphorylation in cells (immunoblotting). In kind it is cell-based. The note with it: CHO-IGF-1R cells, 10 μM, 15 min. The method, then: as §4, §5, §6
The target of data set [8] is T2, IR. The data set can be described thus: Immunoblotting of IR phosphorylation and downstream signaling in CHO-IR cells. In kind it is cell-based. On the set-up: expressed in transfected cells; host or cells: CHO (CHO-IR, gift from Dr. Nicholas Webster, UCSD). The method, then:
The cell lysates were analyzed by immunoblotting with anti-phospho-IR antibodies, or immunoprecipitated by PY20 and analyzed using anti-IR and anti-IRS-1, respectively. […] The cell lysates were analyzed by immunoblotting with anti-pIGF-1R and anti-pEGFR. […]
as §3

T2 sequence (P06213 763-1382 limits assumed): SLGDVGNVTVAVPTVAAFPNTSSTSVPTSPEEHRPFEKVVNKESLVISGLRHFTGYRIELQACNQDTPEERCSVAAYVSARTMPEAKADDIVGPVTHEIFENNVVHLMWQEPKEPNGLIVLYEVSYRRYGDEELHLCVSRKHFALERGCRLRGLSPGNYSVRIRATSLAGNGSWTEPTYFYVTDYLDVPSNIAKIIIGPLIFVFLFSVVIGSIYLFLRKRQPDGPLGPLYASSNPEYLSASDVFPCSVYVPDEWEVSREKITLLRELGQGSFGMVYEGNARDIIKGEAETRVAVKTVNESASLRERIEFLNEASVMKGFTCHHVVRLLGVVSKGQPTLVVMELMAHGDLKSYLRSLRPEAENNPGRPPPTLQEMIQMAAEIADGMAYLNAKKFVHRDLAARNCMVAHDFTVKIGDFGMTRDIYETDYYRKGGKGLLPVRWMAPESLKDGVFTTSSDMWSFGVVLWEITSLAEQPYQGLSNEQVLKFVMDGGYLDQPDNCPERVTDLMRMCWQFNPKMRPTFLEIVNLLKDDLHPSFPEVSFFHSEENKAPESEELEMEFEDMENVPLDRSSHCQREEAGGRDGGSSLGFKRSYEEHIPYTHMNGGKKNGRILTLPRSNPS
T2 sequence (P06213 28-758 limits assumed): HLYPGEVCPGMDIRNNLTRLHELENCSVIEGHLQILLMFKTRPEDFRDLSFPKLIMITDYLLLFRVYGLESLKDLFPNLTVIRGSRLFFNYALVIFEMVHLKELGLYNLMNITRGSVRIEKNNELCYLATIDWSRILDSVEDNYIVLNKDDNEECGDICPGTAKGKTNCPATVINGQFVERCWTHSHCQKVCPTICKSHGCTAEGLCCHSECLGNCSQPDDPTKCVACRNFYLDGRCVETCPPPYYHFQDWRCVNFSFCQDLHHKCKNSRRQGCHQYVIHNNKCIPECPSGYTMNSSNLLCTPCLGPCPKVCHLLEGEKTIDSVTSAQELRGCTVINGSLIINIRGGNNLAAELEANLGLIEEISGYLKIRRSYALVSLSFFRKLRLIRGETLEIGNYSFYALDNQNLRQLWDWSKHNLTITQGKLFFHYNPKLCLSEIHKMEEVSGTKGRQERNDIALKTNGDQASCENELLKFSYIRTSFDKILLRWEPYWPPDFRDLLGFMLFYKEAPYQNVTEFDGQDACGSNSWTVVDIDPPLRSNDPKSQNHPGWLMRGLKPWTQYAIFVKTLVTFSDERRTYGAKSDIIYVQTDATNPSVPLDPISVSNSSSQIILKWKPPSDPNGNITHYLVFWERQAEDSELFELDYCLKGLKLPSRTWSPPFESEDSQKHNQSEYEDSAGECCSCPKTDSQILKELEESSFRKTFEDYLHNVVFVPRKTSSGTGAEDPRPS

For `NC1=CC(=O)c2ccccc2C1=O` [2NH2-NQ, 2-amino-1,4-naphthoquinone, reference compound], in data set [1], the “IR and IRS-1 tyrosine phosphorylation in liver and muscle” value is “Neither IR nor IRS phosphorylations were increased”. Further, the “IRTK kinase activity (histone H2B phosphorylation)” value in data set [2] was “inactive analogue”. Also, in data set [3], the “blood glucose as compared to vehicle control” value is listed as “had no effect”. In data set [4], the IR phosphorylation entry is given as “not active”.

For the compound `CSC1=C(SC)C(=O)c2ccccc2C1=O` [CSN, 2,3-Bis-methylsulfanyl-1,4-naphthoquinone], the EGFR activation result in data set [5] is given as “Neither IGF-1R nor EGFR was activated”. Also, the lethality result in data set [6] was “lethal to the animals”. Further, the IGF-1R activation result in data set [7] is given as “Neither IGF-1R nor EGFR was activated”. In data set [8] (5 μM), the “time at which IR activation peaked” value amounted to 60 min and the “time at which IR phosphorylation starts” value fell in the range of 5 to 15 min. Also, in data set [8] (5 μM, 15 min), the “tyrosine phosphorylation of IRS-1” value is “also increased”; the “tyrosine phosphorylation of the IR β subunit in Y1146 and Y1158/1162/1163” value was “strongly stimulated”. Moreover, the “concentration stimulating the IR signal cascades” value in data set [8] (DDN or CSN 30 min, insulin 15 min) came to 5 µM.
